Experimental data published in article PMC11191095, “QSAR Reveals Decreased Lipophilicity of Polar Residues Determines the Selectivity of Antimicrobial Peptide Activity” (ACS Omega, 2024).
Where a SMILES comes first, the peptide text is derived from it.

Assays:
human erythrocytes = assay: In vitro hemolytic activity; format: cell-based; conditions: human erythrocytes in PBS, 1 h, 37 °C, OD550; from dose response curves
Protocol: Potential erythrocyte hemolysis was tested by incubating serial dilutions of the AMPs in PBS with freshly collected erythrocytes at a ratio of 1:1 in 96-well polypropylene V-shape plates for 1 h at 37 °C. Control wells were treated with 0.1% Triton-X-100 to ensure complete lysis or PBS-only to represent no lysis. The erythrocytes were collected by centrifugation and the OD550 of the supernatant was measured using a plate reader. The percentage hemolysis was calculated as [drawing 1] 1 where Apeptide is the absorbance value of erythrocytes exposed to a known peptide concentration, Agrowth control is the absorbance of erythrocytes exposed to 0.1% Triton-X-100 and Ablank is the absorbance of erythrocytes exposed to the PBS. The concentrations at which a peptide caused 10% (HC10) and 50% (HC50) hemolysis was determined from the dose response curves.

HaCat cell line = assay: In vitro HaCat cytotoxicity (MTT); format: cell-based, human; conditions: 21 h exposure, OD570, relative to untreated control
Protocol: The HaCat cell line (Cellonex, South Africa) was cultured in Dulbecco’s Modified Eagle Medium (DMEM) supplemented with 10% heat-inactivated fetal calf serum (FCS) and 1% antibiotic-antimycotic (Abs) and maintained at 5–10% CO2, 37 °C, 95% humidity. For cytotoxicity screening, 5.56 × 10^4 cells/mL were plated in a 96-well plate. After 24 h incubation, the cells are initially exposed to each peptide at a concentration of 256 μg/mL or 0.1% Triton-X-100 as the control for 21 h. If cytotoxicity was observed, at a level of significance of p < 0.0001 compared with the untreated control after 21 h, a dose-response assay was undertaken. Cell viability was determined by adding 10% 3-(4,5-dimethyl-2-thiazolyl)-2,5-diphenyl-2H-tetrazolium bromide (MTT) (1 mg/mL), to each well and after a further 3 h incubation the media was discarded, and the formazan crystals dissolved by adding 25% DMSO in ethanol. The absorbance was measured at OD570 by using the FLUOstar Omega multidetection microplate reader (BMG Labtech). Percentage cell viability was calculated relative to the untreated control. The LC50 was defined as the concentration of AMP treatment that results in 50% lethality of HaCat cells and was determined from the dose-response curves.

E. coli LEC001 = assay: microbe, parasite or virus in culture; format: cell-based, Escherichia coli; conditions: E. coli LEC001 (R); shown in µM
How it was run: (§1)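 Peptides 128→2 μg/mL, 2-fold series; inoculum ~5 × 10^5 CFU/mL from overnight culture (OD600 0.01, mixed 1:1). MHB non-cation-adjusted for bacteria, RPMI 1640 + 2% glucose for fungi. 37 °C, 20 h, OD600. MIC50/MIC90 at 50%/90% inhibition; n ≥ 3.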

E. coli NCTC 12923 = assay: microbe, parasite or virus in culture; format: cell-based, Escherichia coli; conditions: E. coli NCTC 12923 (S); shown in µM
How it was run: as §1

P. aeruginosa NCTC 13437 = assay: microbe, parasite or virus in culture; format: cell-based, Pseudomonas aeruginosa; conditions: P. aeruginosa NCTC 13437 (R); shown in µM
How it was run: as §1

P. aeruginosa PAO1 = assay: microbe, parasite or virus in culture; format: cell-based, Pseudomonas aeruginosa; conditions: P. aeruginosa PAO1 (S)
How it was run: as §1

A. baumannii ATCC 17978 = assay: microbe, parasite or virus in culture; format: cell-based, Acinetobacter baumannii; conditions: A. baumannii ATCC 17978 (S); shown in µM
How it was run: as §1

A. baumannii AYE = assay: microbe, parasite or virus in culture; format: cell-based, Acinetobacter baumannii; conditions: A. baumannii AYE (R); shown in µM
How it was run: as §1

K. pneumoniae M6 = assay: microbe, parasite or virus in culture; format: cell-based, Klebsiella pneumoniae; conditions: K. pneumoniae M6 (S); shown in µM
How it was run: as §1

K. pneumoniae NCTC 13368 = assay: microbe, parasite or virus in culture; format: cell-based, Klebsiella pneumoniae; conditions: K. pneumoniae NCTC 13368 (R); shown in µM
How it was run: as §1

S. aureus (MRSA) 1199B = assay: microbe, parasite or virus in culture; format: cell-based, Staphylococcus aureus; conditions: S. aureus (MRSA) 1199B (R); shown in µM
How it was run: as §1

[1] = system: S. aureus (MRSA) NCTC 13616; assay: microbe, parasite or virus in culture; format: cell-based, Staphylococcus aureus; conditions: S. aureus (MRSA) NCTC 13616 (R); shown in µM
How it was run: as §1

S. aureus (MRSA) USA300 = assay: microbe, parasite or virus in culture; format: cell-based, Staphylococcus aureus; conditions: S. aureus (MRSA) USA300 (R); shown in µM
How it was run: as §1

[2] = system: S. aureus (MSSA) ATCC 9144; assay: microbe, parasite or virus in culture; format: cell-based, Staphylococcus aureus; conditions: S. aureus (MSSA) ATCC 9144 (S); shown in µM
How it was run: as §1

C. auris TDG 1912 = assay: microbe, parasite or virus in culture; format: cell-based, Candida auris; conditions: C. auris TDG 1912
How it was run: as §1

C. albicans NCPF 3281 = assay: microbe, parasite or virus in culture; format: cell-based; conditions: C. albicans NCPF 3281
How it was run: as §1

C. glabrata NCPF 8018 = assay: microbe, parasite or virus in culture; format: cell-based; conditions: C. glabrata NCPF 8018
How it was run: as §1

C. krusei NCPF 3876 = assay: microbe, parasite or virus in culture; format: cell-based; conditions: C. krusei NCPF 3876; shown in µM
How it was run: as §1

[3] = system: C. parapsilosis NCPF 3209; assay: microbe, parasite or virus in culture; format: cell-based; conditions: C. parapsilosis NCPF 3209; shown in µM
How it was run: as §1

C. tropicalis NCPF 8760 = assay: microbe, parasite or virus in culture; format: cell-based; conditions: C. tropicalis NCPF 8760; shown in µM
How it was run: as §1

[4] = 50% growth inhibition, RPMI 1640 + 2% glucose, 37 °C, 20 h
[5] = 90% growth inhibition, RPMI 1640 + 2% glucose, 37 °C, 20 h

CC[C@H](C)[C@H](NC(=O)[C@H](C)NC(=O)[C@H](CCCCN)NC(=O)[C@H](CCCNC(=N)N)NC(=O)[C@@H](NC(=O)[C@H](CC(C)C)NC(=O)[C@H](CO)NC(=O)[C@H](Cc1ccccc1)NC(=O)[C@H](CC(C)C)NC(=O)[C@@H](N)Cc1ccccc1)[C@@H](C)CC)C(=O)NCC(=O)NCC(=O)N[C@@H](CC(C)C)C(=O)N[C@H](C(=O)N[C@@H](CO)C(=O)N[C@@H](C)C(=O)N[C@@H](Cc1ccccc1)C(=O)N[C@@H](CCCCN)C(=O)O)[C@@H](C)CC [A3]
HC10 (concentration causing 10% hemolysis) (human erythrocytes): 9 µg/mL
% HaCat cell death at initial screening (256μg/mL) ± SD (HaCat cell line): 100 ± 9.7%

CC[C@H](C)[C@H](NC(=O)[C@H](C)NC(=O)[C@H](CCCCN)NC(=O)[C@@H]1CCCN1C(=O)[C@@H](NC(=O)[C@H](CC(C)C)NC(=O)[C@H](CCCCN)NC(=O)[C@H](Cc1ccccc1)NC(=O)[C@H](CC(C)C)NC(=O)[C@@H](N)Cc1ccccc1)[C@@H](C)CC)C(=O)N[C@@H](CCCCN)C(=O)N[C@@H](CCCCN)C(=O)N[C@@H](CC(C)C)C(=O)N[C@H](C(=O)N[C@@H](CO)C(=O)N[C@@H](CCCCN)C(=O)N[C@@H](Cc1ccccc1)C(=O)N[C@@H](CCCCN)C(=O)O)[C@@H](C)CC [AamAP1-Lys] (H-FLFKLIPKAIKKLISKFK-OH)
HC10 (concentration causing 10% hemolysis) (human erythrocytes): 94 µg/mL
% HaCat cell death at initial screening (256μg/mL) ± SD (HaCat cell line): 99.1 ± 8.7%

CC[C@H](C)[C@H](NC(=O)[C@H](C)NC(=O)[C@H](CCCCN)NC(=O)[C@@H]1CCCN1C(=O)[C@@H](NC(=O)[C@H](CC(C)C)NC(=O)[C@H](CO)NC(=O)[C@H](Cc1ccccc1)NC(=O)[C@H](CC(C)C)NC(=O)[C@@H](N)Cc1ccccc1)[C@@H](C)CC)C(=O)NCC(=O)NCC(=O)N[C@@H](CC(C)C)C(=O)N[C@H](C(=O)N[C@@H](CO)C(=O)N[C@@H](C)C(=O)N[C@@H](Cc1ccccc1)C(=O)N[C@@H](CCCCN)C(=O)O)[C@@H](C)CC [AamAP-S1]
HC10 (concentration causing 10% hemolysis) (human erythrocytes): 128 µg/mL
HC50 (concentration causing 50% hemolysis) (human erythrocytes): 195 µg/mL
% HaCat cell death at initial screening (256μg/mL) ± SD (HaCat cell line): 85 ±17.9%

CC[C@H](C)[C@H](N)C(=O)N[C@@H](CC(C)C)C(=O)NCC(=O)N[C@@H](CCCCN)C(=O)N[C@H](C(=O)N[C@@H](Cc1c[nH]c2ccccc12)C(=O)N[C@@H](CCCCN)C(=O)N1CCC[C@H]1C(=O)N[C@H](C(=O)N[C@@H](CCCCN)C(=O)N[C@@H](CCCCN)C(=O)N[C@@H](CC(C)C)C(=O)N[C@@H](Cc1ccccc1)C(N)=O)[C@@H](C)CC)[C@@H](C)CC [K7P8K11-IsCTa] (H-ILGKIWKPIKKLF-NH2)
Modal MIC (E. coli LEC001): 39.5 µM
Modal MIC (E. coli NCTC 12923): 9.9 µM
Modal MIC (P. aeruginosa NCTC 13437): 39.5 µM
Modal MIC (P. aeruginosa PAO1; MHB, 37 °C, 20 h, OD600, min. three biological repeats): > 128 µg/mL
Modal MIC (P. aeruginosa PAO1; shown in µM): > 79 µM
Modal MIC (A. baumannii ATCC 17978): 4.9 µM
Modal MIC (A. baumannii AYE): 4.9 µM
Modal MIC (K. pneumoniae M6): 19.8 µM
Modal MIC (K. pneumoniae NCTC 13368): 39.5 µM
Modal MIC (S. aureus (MRSA) 1199B): 19.8 µM
Modal MIC [1]: 39.5 µM
Modal MIC (S. aureus (MRSA) USA300): 39.5 µM
Modal MIC [2]: 4.9 µM
Modal MIC50 (C. auris TDG 1912; 50% growth inhibition, RPMI 1640 + 2% glucose, 37 °C, 20 h, OD600): > 128 µg/mL
Modal MIC90 (C. auris TDG 1912; 90% growth inhibition, RPMI 1640 + 2% glucose, 37 °C, 20 h, OD600): > 128 µg/mL
Modal MIC50 (C. auris TDG 1912; shown in µM): > 79 µM
Modal MIC90 (C. auris TDG 1912; shown in µM): > 79 µM
Modal MIC50 (C. albicans NCPF 3281; [4]): > 128 µg/mL
Modal MIC90 (C. albicans NCPF 3281; [5]): > 128 µg/mL
Modal MIC50 (C. albicans NCPF 3281; shown in µM): > 79 µM
Modal MIC90 (C. albicans NCPF 3281; shown in µM): > 79 µM
Modal MIC50 (C. glabrata NCPF 8018; [4]): > 128 µg/mL
Modal MIC90 (C. glabrata NCPF 8018; [5]): > 128 µg/mL
Modal MIC50 (C. glabrata NCPF 8018; shown in µM): > 79 µM
Modal MIC90 (C. glabrata NCPF 8018; shown in µM): > 79 µM
Modal MIC50 (C. krusei NCPF 3876): 19.8 µM
Modal MIC90 (C. krusei NCPF 3876): 39.5 µM
Modal MIC50 [3]: 39.5 µM
Modal MIC90 [3]: 79 µM
Modal MIC50 (C. tropicalis NCPF 8760): 4.9 µM
Modal MIC90 (C. tropicalis NCPF 8760): 9.9 µM
% HaCat cell death at initial screening (256μg/mL) ± SD (HaCat cell line): 89.2 ± 9.1%
